Experimental data from a melting point compilation (Tetko et al.).

Compound | melting point
O=C(O)c1cc(F)c(Cl)cc1Cl | 141 to 144 °C
CC=C(C(=CC)c1ccc(O)cc1)c1ccc(O)cc1 | 228 °C
O=Cc1cccc(Oc2ccccn2)c1 | 115 to 116 °C
Nc1cc(-c2cccs2)n[nH]1 | 101 °C
O=Cc1cc2c(cc1Cl)OCO2 | 116 °C
COc1ccc(C(=O)OC(COc2ccc(C=CC(=O)c3ccccc3)cc2)COc2ccc(C(=O)C=Cc3ccccc3)cc2)cc1 (stereo not given) | 74 °C
Cc1ccc2nc(C(F)(F)F)cc(Cl)c2c1 | 62 to 65 °C
CC1(C2CCC3C4CCC5CC(O)CCC5(C)C4CCC32C)OCCO1 (stereo not given) | 174 °C
COC(=O)c1ccccc1S(=O)(=O)Cl | 62 to 63 °C
CC(=O)c1ccc(N2CCOCC2)cc1 | 94 to 98 °C
CCOC(=O)CC=C(c1ccc(OC)cc1)C(C)(C)C(=O)OCC | 146 °C
CC1=NNC(=O)C1=NNc1cccc(F)c1 | 218 °C
O=C(O)c1ccccc1C(=O)Nc1cccc2ccccc12 | 185 °C
COc1c(F)cc(CBr)cc1F | 41 °C
CNCc1ccc(-c2ncccn2)cc1 | 49.5 to 54.9 °C
O=C(O)c1sc2sccc2c1Cl | 252 to 258 °C

Compound | melting point
O=C(c1ccccc1)C(F)(F)F | -40 °C
CCCCCCOC(=O)CCCC | -63.1 °C
C1=CC2c3ccccc3C1C21CC1 | 43 °C
CS(=O)(=O)c1ccc(C(=O)C2C(=O)CCCC2=O)c(Cl)c1 | 139 °C
NS(=O)(=O)c1ccc(S(=O)(=O)CCCCO)c(F)c1 | 134 °C
COC(=O)CC(=O)OC(C)(C)C | -10 °C
CCOC(=O)c1cc2c(=O)oc3ccccc3c2[nH]c1=O | 313 to 315 °C
N#Cc1cccc(N2CCCC2)c1 | 84 to 85 °C
CC(=O)N1C(C(=O)O)Cc2c([nH]c3ccccc23)C1(C)C (stereo not given) | 160 °C
C=CCOc1c(Cc2cc(C(C)=O)c(O)c(C)c2OCC=C)cc(C(C)=O)c(O)c1C | 143 °C
N#CCC(=O)N1CCCC1 | 72.5 °C
O=C1CCCN1C1CCCCC1 | 13 °C
COC(=O)c1scc(Br)c1OC | 73 to 74 °C
O=[N+]([O-])c1cccnc1N1CCOCC1 | 89 to 91 °C
COc1cc(C)c(CCl)cc1CCl | 78 °C

Further lines, results first:

melting point | Compound
233 to 235 °C | CC(C)C[C@H](NC(=O)CN)C(=O)O
115 to 117 °C | CCSc1nc(N)nc(C(C)C)n1
110 to 111 °C | Cc1ccc(-c2ccc(C=CC(=O)c3ccco3)o2)cc1
131 °C | CC(=O)C(C(=O)c1ccccc1)c1cc(Cl)c([N+](=O)[O-])cc1[N+](=O)[O-] (stereo not given)
32 °C | CCCCCCCCCCCCCCCCCBr
223 to 225 °C | Cc1nc(-c2cccc(C(=O)O)c2)no1
172 °C | Oc1ccnc2c(C(F)(F)F)cccc12
123 °C | N#CC(C(=O)N1CCOCC1)=C(SCc1ccccc1)SCc1ccccc1
220 °C | O=[N+]([O-])c1ccc(-c2nnc3n2NC(c2ccccc2)S3)cc1 (stereo not given)
116 °C | O=C(c1ccccc1)c1nn(-c2ccccc2)c(-c2ccc([N+](=O)[O-])cc2)c1S(=O)(=O)c1ccccc1
134 to 137 °C | CC(C)(C)OC(=O)NN1CCCC1C(=O)O (stereo not given)
160 °C | Cc1ccc2ccc3ccc(C)nc3c2n1
143 to 148 °C | Clc1ccc2nc(Cl)c(Cl)nc2c1
300 °C | O=c1[nH]c2ccccc2[nH]c1=O
177 °C | COc1cc2nc(Cl)nc(Cl)c2cc1OC
232 to 234 °C | CC(/C=C/c1ccccc1)=C\C(C)=N\Nc1ccc([N+](=O)[O-])cc1[N+](=O)[O-]
111 to 113 °C | Cc1nc(-c2ccccc2)sc1C=O
93 to 94 °C | O=C(Cl)c1csc(-c2cccs2)n1
130 to 132 °C | O=C1c2ccccc2C2NCCCN12 (stereo not given)
